According to patent US20260226084A1, “DUAL RAF AND TUBULIN INHIBITORS AND METHODS OF USE THEREOF” (Deciphera Pharmaceuticals, LLC, priority 2023, published 2026):
pIC50: −log10 of the molar value. Like-named read-outs stand apart in the source and are kept apart here.

Experiments:
[1] = target: T1, C-Raf kinase (SEQ ID NO: 2) (Homo sapiens, UniProt P04049, Y340D/Y341D); experiment: Biochemical Assay for C-Raf (coupled pyruvate kinase/lactate dehydrogenase assay); conditions: 1 mM ATP; read-out: CRAF (inhibition of biochemical activity, IC50)
T1 construct: C-Raf residues 306-end; Y340D, Y341D with; GST (N); purchased Sigma
T1 sequence (P04049 307-648 Y340D/Y341D): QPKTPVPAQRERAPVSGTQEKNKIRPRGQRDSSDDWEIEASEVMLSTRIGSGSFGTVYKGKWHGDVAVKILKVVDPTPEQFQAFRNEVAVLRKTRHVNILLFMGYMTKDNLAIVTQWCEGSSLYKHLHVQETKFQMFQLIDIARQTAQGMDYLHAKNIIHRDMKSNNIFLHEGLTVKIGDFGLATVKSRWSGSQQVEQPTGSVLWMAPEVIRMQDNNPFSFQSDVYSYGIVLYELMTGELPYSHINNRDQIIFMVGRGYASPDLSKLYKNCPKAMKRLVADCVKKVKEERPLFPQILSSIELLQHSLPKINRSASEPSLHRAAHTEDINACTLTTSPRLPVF

MiaPaca-2 cells = experiment: MiaPaca-2 Cell Proliferation Assay; assay type: cell-based; conditions: Table 2, read-out: Inhibition of cell proliferation in MiaPaca-2 (IC50 class)
How it was run: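 Viability was read as resazurin fluorescence (540 nm excitation, 600 nm emission) after 5–6 h with dye. Compounds were tested as serial dilutions in triplicate, with IC50 derived from the dose–response.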

[2] = target: T2, B-Raf kinase (SEQ ID NO: 1) (Homo sapiens, UniProt P15056); experiment: Biochemical Assay for B-Raf (coupled pyruvate kinase/lactate dehydrogenase assay); conditions: 1 mM ATP; read-out: BRAF (inhibition of biochemical activity, IC50)
T2 construct: GST (N); purchased Sigma
T2 sequence (P15056 416-766): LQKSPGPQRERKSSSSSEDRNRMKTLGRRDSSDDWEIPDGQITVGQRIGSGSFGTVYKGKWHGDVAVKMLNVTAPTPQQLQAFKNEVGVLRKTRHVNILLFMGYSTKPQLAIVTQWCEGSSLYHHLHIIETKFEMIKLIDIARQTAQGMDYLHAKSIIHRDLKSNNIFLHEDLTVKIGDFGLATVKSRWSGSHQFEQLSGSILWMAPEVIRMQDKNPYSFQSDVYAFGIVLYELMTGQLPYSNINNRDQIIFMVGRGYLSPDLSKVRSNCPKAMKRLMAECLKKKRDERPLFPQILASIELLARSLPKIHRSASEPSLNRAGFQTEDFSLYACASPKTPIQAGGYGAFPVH

Pa16c cells = experiment: Pa16c Cell Proliferation Assay; assay type: cell-based; conditions: Table 2, read-out: Inhibition of cell proliferation in Pa16c (IC50 class)
How it was run: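 Proliferation read-out: resazurin fluorescence (540 nm excitation, 600 nm emission) after an extra 18 to 24 h. Before that, compound dilution series (triplicate) stayed on 750 Pa16c cells/well in complete DMEM/10% FBS for 67 to 72 h at 37° C. IC50 values derived from the curves.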

HPAF-II cells = experiment: HPAF-II Cell Proliferation Assay; assay type: cell-based; conditions: HPAF-II cells, Table 2, read-out: Inhibition of cell proliferation in HPAF-II (IC50 class)
How it was run: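 Viability read-out was resazurin fluorescence (540 nm excitation, 600 nm emission), developed 18–24 h after a 115–120 h compound exposure of 750 HPAF-II cells per well in MEM/10% FBS at 37 °C. Compound was tested as a serial dilution in triplicate, and IC50 values were calculated.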

HCT-116 cells = experiment: HCT-116 Cell Proliferation Assay; assay type: cell-based; conditions: Table 2, read-out: Inhibition of cell proliferation in HCT-116 (IC50 class)
How it was run: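 IC50 values come from resazurin fluorescence (540 nm excitation, 600 nm emission) added for 4 to 5 h after compound treatment. Treatment: serially diluted compound in triplicate on 375 HCT-116 cells per well in complete McCoy's 5A/10% FBS, 67 to 72 hours, 37 °C, 5% CO2.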

[3] = Homo sapiens, MIA PaCa-2, MiaPaca-2 cells
[4] = Homo sapiens, HCT-116, HCT-116 cells

| SMILES | pIC50 [1] | pIC50 (MiaPaca-2 cells; [3]) | pIC50 [2] | pIC50 (HCT-116 cells; [4]) | pIC50 (MiaPaca-2 cells; MiaPaca-2 cells) | pIC50 (HCT-116 cells; HCT-116 cells) | pIC50 (Pa16c cells) | pIC50 (HPAF-II cells; Homo sapiens, HPAF-II) | pIC50 (HPAF-II cells) |
| --- | --- | --- | --- | --- | --- | --- | --- | --- | --- |
| Cc1ccc(NC(=O)c2ccc(C(F)F)nn2)cc1-c1ccnc(-c2ccnc(NC(=O)C3CC3)c2)c1 [Example 58] | 6.30 to 7.00 | 6.30 to 7.00 | 6.00 to 6.30 | > 7.00 |  |  | 5.00 to 6.00 | 6.30 to 7.00 |  |
| COc1cnnc(C(=O)Nc2ccc(C)c(-c3ccnc(-c4ccnc(NC(=O)C5CC5)c4)c3)c2)c1 [Example 49] | > 7.00 | 6.00 to 6.30 | > 7.00 | 6.30 to 7.00 |  |  | 5.00 to 6.00 | 6.30 to 7.00 |  |
| Cc1ccc(NC(=O)c2cnc(C(F)(F)F)nc2)cc1-c1cc(N[C@H](C)CO)nc(-c2cn[nH]c2)c1 [Example 133] | > 7.00 | 6.30 to 7.00 | 6.30 to 7.00 | 6.30 to 7.00 |  |  | 5.00 to 6.00 | 5.00 to 6.00 |  |
| Cc1ccc(NC(=N)c2cc(C3CC3)cnn2)cc1-c1ccnc(-c2ccnc(NC(=O)C3CC3)c2)c1 [Example 87] | > 7.00 | 5.00 to 6.00 | > 7.00 | 5.00 to 6.00 |  |  | 5.00 to 6.00 | 5.00 to 6.00 |  |
| Cc1ccc(NC(=O)c2cc(C(C)(F)F)cnn2)cc1-c1cncc(-c2cc(NC(=O)C3CC3)ncn2)c1 [Example 63] | > 7.00 | 6.30 to 7.00 | > 7.00 | > 7.00 |  |  | 6.00 to 6.30 | 6.30 to 7.00 |  |
| CC(=O)Nc1cc(-c2cc(-c3cc(NC(=O)c4ccc(C(F)F)nc4)ccc3C)ccn2)ccn1 [Example 1, N-(3-(2′-acetamido-[2,4′-bipyridin]-4-yl)-4-methylphenyl)-6-(difluoromethyl)nicotinamide] | > 7.00 | > 7.00 | > 7.00 | > 7.00 |  |  | > 7.00 | > 7.00 |  |
| Cc1ccc(NC(=O)c2ccc(C(F)(F)F)nc2)cc1-c1cncc(-c2ccnc(NC(=O)C3CC3)c2)c1 [Example 72] | > 7.00 | 6.00 to 6.30 | > 7.00 | 6.30 to 7.00 |  |  | 5.00 to 6.00 | 6.00 to 6.30 |  |
| Cc1ccc(NC(=O)c2cc(C(C)C)cnn2)cc1-c1cncc(-c2cc(NC(=O)C3CC3)ncn2)c1 [Example 64] | > 7.00 | 6.00 to 6.30 | > 7.00 | 6.30 to 7.00 |  |  | 6.30 to 7.00 | 6.30 to 7.00 |  |
| Cc1ccc(NC(=O)c2cc(C3CC3)cnn2)cc1-c1cc(OCCO)nc(-c2ccnc(NC(=O)C3CC3)c2)c1 [Example 104] | > 7.00 | 6.00 to 6.30 | > 7.00 | 6.30 to 7.00 |  |  | 6.30 to 7.00 | 6.30 to 7.00 |  |
| Cc1ccc(NC(=O)c2cc(C(C)(F)F)cnn2)cc1-c1cc(N[C@H](C)CO)nc(-c2cn[nH]c2)c1 [Example 121] | > 7.00 | > 7.00 | > 7.00 | > 7.00 |  |  | > 7.00 | 6.30 to 7.00 |  |
| Cc1ccc(NC(=O)c2cc(OC(F)F)cnn2)cc1-c1ccnc(-c2ccnc(NC(=O)C3CC3)c2)c1 [Example 134] | > 7.00 | 6.00 to 6.30 | > 7.00 | 6.30 to 7.00 |  |  | 6.30 to 7.00 | 5.00 to 6.00 |  |
| Cc1ccc(NC(=O)c2cc(C(C)(F)F)cnn2)cc1-c1cc(NCCO)nc(-c2ccnc(NC(=O)C3CC3)c2)c1 [Example 101] | > 7.00 | 6.30 to 7.00 | > 7.00 | > 7.00 |  |  | > 7.00 | 6.30 to 7.00 |  |
| Cc1cc(F)c(NC(=O)c2cc(C(F)(F)F)cnn2)cc1-c1ccnc(-c2ccnc(NC(=O)C3CC3)c2)c1 [Example 60] | > 7.00 | 5.00 to 6.00 | > 7.00 | 6.30 to 7.00 |  |  | 5.00 to 6.00 | 5.00 to 6.00 |  |
| CC(=O)Nc1cc(-c2cc(-c3cc(NC(=O)c4ccc(C(F)F)nc4)c(F)cc3C)ccn2)ccn1 [Example 20] | > 7.00 | > 7.00 | > 7.00 | 6.30 to 7.00 |  |  | 6.30 to 7.00 | > 7.00 |  |
| CC(=O)Nc1cc(-c2cc(-c3cc(NC(=O)c4ccc(C(F)(F)F)nc4)ccc3C)ccn2)ccn1 [Example 24] | > 7.00 | > 7.00 | > 7.00 | > 7.00 |  |  | 6.30 to 7.00 | > 7.00 |  |
| Cc1ccc(NC(=O)c2cc(C3CC3)cnn2)cc1-c1cc(NCCO)nc(-c2ccnc(NC(=O)C3CC3)c2)c1 [Example 100] | > 7.00 | 6.30 to 7.00 | > 7.00 | > 7.00 |  |  | > 7.00 | 6.30 to 7.00 |  |
| Cc1ccc(NC(=O)c2cc(N)cnn2)cc1-c1ccnc(-c2ccnc(NC(=O)C3CC3)c2)c1 [Example 99] | 6.30 to 7.00 | 5.00 to 6.00 | 6.00 to 6.30 | 5.00 to 6.00 |  |  | 5.00 to 6.00 | 5.00 to 6.00 |  |
| Cc1ccc(NC(=O)c2cc(C(C)C)cnn2)cc1-c1ccnc(-c2ccnc(NC(=O)C3CC3)c2)c1 [Example 38] | > 7.00 | 6.30 to 7.00 | > 7.00 | 6.30 to 7.00 |  |  | 6.00 to 6.30 | 6.30 to 7.00 |  |
| Cc1ccc(NC(=O)c2ccc(C(C)(F)F)nc2)cc1-c1ccnc(-c2ccnc(NC(=O)C3CC3)c2)c1 [Example 80] | > 7.00 | 6.30 to 7.00 | > 7.00 | 6.30 to 7.00 |  |  | 6.30 to 7.00 | 6.30 to 7.00 |  |
| Cc1ccc(NC(=O)c2cc(C(F)(F)F)cnn2)cc1-c1cc(N[C@H](C)CO)nc(-c2cn[nH]c2C)c1 [Example 120] | > 7.00 | > 7.00 | > 7.00 | 6.30 to 7.00 |  |  | 6.30 to 7.00 | 6.30 to 7.00 |  |
| Cc1ccc(NC(=O)c2ccc(C(F)(F)F)nn2)cc1-c1cncc(-c2cc(NC(=O)C3CC3)ncn2)c1 [Example 23] | > 7.00 | 5.00 to 6.00 | > 7.00 | 5.00 to 6.00 |  |  | 5.00 to 6.00 | 5.00 to 6.00 |  |

Second part, led by results:

| pIC50 [1] | pIC50 (MiaPaca-2 cells; [3]) | pIC50 [2] | pIC50 (HCT-116 cells; [4]) | pIC50 (MiaPaca-2 cells; MiaPaca-2 cells) | pIC50 (HCT-116 cells; HCT-116 cells) | SMILES | pIC50 (Pa16c cells) | pIC50 (HPAF-II cells; Homo sapiens, HPAF-II) | pIC50 (HPAF-II cells) |
| --- | --- | --- | --- | --- | --- | --- | --- | --- | --- |
| 6.30 to 7.00 | 6.30 to 7.00 | 6.30 to 7.00 | 6.30 to 7.00 |  |  | CCNc1cc(-c2cc(-c3cc(NC(=O)c4cc(C(F)(F)F)cnn4)ccc3C)ccn2)ccn1 [Example 95] | 6.00 to 6.30 | 6.30 to 7.00 |  |
| > 7.00 | 5.00 to 6.00 | > 7.00 | 6.00 to 6.30 |  |  | COCC(=O)Nc1cc(-c2nccc(-c3cc(NC(=O)c4cc(C(F)(F)F)cnn4)ccc3C)n2)ccn1 [Example 10] | 5.00 to 6.00 | 6.00 to 6.30 |  |
| > 7.00 | 6.30 to 7.00 | > 7.00 | 6.30 to 7.00 |  |  | CNCC(=O)Nc1cc(-c2cc(-c3cc(NC(=O)c4cc(C(F)(F)F)cnn4)ccc3C)ccn2)ccn1 [Example 88] | 5.00 to 6.00 | 6.30 to 7.00 |  |
| 5.00 to 6.00 | 6.30 to 7.00 | 5.00 to 6.00 | 6.30 to 7.00 |  |  | Cc1ccc(NC(=O)c2cc(C(F)(F)F)cnn2)cc1-c1ccnc(-c2ccnc(NC(C)C)c2)c1 [Example 54] | 6.30 to 7.00 | 6.30 to 7.00 |  |
| > 7.00 |  | > 7.00 |  | 6.30 to 7.00 | > 7.00 | CC(=O)Nc1cc(-c2cc(-c3cc(NC(=O)c4cc(C(F)(F)F)cnn4)ccc3C)ccn2)ccn1 [Example 93] | 5.00 to 6.00 |  | > 7.00 |
| > 7.00 |  | > 7.00 |  | 6.00 to 6.30 | 6.30 to 7.00 | CC(=O)Nc1cc(-c2cncc(-c3cc(NC(=O)c4cc(C(F)(F)F)cnn4)ccc3C)c2)ncn1 [Example 71] | 5.00 to 6.00 |  | 6.00 to 6.30 |
| > 7.00 | 6.30 to 7.00 | 6.30 to 7.00 | 6.30 to 7.00 |  |  | Cc1ccc(NC(=O)c2cc(C(F)(F)F)cnn2)cc1-c1ccnc(-c2cnn(C)c2)c1 [Example 114] | 6.30 to 7.00 | 6.30 to 7.00 |  |
| > 7.00 | 6.00 to 6.30 | > 7.00 | 6.30 to 7.00 |  |  | Cc1ccc(NC(=O)c2cc(C(F)(F)F)cnn2)cc1-c1cncc(-c2ccnc(NC(=O)C3CC3)c2)c1 [Example 39] | 6.30 to 7.00 | 6.00 to 6.30 |  |
| > 7.00 | 6.30 to 7.00 | > 7.00 | 6.30 to 7.00 |  |  | Cc1ccc(NC(=O)c2cc(C(F)(F)F)cnn2)cc1-c1ccnc(-c2cncn2C)c1 [Example 135] | 6.30 to 7.00 | 6.30 to 7.00 |  |
